Test results as given in patent US20260183277A1, “ANTIVIRAL PHARMACEUTICAL COMPOSITION COMPRISING ERRy INHIBITOR AS ACTIVE INGREDIENT” (priority 2024, published 2026).
Like-named read-outs stand apart in the source and are kept apart here.

What was measured:
PSaV Cowden strain = experiment: microbe, parasite or virus in culture; assay type: cell-based, porcine sapovirus; conditions: Sapporo virus, MOI=0.1 FFU, viral yield in cell supernatant, read-out: half-maximal inhibitory concentration (IC50)
[1] = test system: influenza A virus (IAV) PR8 strain; assay type: cell-based
BCoV KWD strain = assay type: cell-based, bovine coronavirus; conditions: maximum dose of 20 μM
PEDV QIAP1401 strain = assay type: cell-based, porcine epidemic diarrhea coronavirus; conditions: maximum dose of 20 μM
SARS-CoV-2 KCDC03 strain = experiment: SARS-CoV-2 KCDC03 challenge of Syrian hamsters; assay type: in vivo; conditions: for reduction of gross lung lesions, individual therapy: strain not stated
[2] = test system: human SREBP1c gene promoter; assay type: cell-based; conditions: cells infected with each individual virus; 20 μM
[3] = test system: SREBP1c, SREBP1a, FASN, DGAT1, SCD1; assay type: cell-based
[4] = test system: intracellular triacylglycerol (TAG); assay type: cell-based; conditions: virus-infected cells; 20 μM
[5] = test system: SARS-CoV-2-infected cells; experiment: Double-membrane vesicle / dsRNA formation by TEM and confocal microscopy; assay type: cell-based
SARS-CoV-2 S protein = assay type: cell-based
IAV HA protein = assay type: cell-based, influenza A virus
[6] = test system: intracellular fatty acid oxidation (FAO); assay type: cell-based
[7] = test system: SARS-CoV-2-infected Vero E6 cells; experiment: Eicosanoid and cytokine ELISA in SARS-CoV-2-infected Vero E6 cells; assay type: cell-based, monkey
IAV-infected A549 cells = assay type: cell-based, human
free fatty acids (FFA) = assay type: cell-based
[8] = Lung distribution after administration to animals; conditions: in vivo experiments
Source text: […]. […] […]

[9] = mice
ERRγ = target: T1, ERRγ (Homo sapiens, UniProt P62508); conditions: compared with lead compound GSK5182; cited from earlier work
T1 sequence (P62508 1-458): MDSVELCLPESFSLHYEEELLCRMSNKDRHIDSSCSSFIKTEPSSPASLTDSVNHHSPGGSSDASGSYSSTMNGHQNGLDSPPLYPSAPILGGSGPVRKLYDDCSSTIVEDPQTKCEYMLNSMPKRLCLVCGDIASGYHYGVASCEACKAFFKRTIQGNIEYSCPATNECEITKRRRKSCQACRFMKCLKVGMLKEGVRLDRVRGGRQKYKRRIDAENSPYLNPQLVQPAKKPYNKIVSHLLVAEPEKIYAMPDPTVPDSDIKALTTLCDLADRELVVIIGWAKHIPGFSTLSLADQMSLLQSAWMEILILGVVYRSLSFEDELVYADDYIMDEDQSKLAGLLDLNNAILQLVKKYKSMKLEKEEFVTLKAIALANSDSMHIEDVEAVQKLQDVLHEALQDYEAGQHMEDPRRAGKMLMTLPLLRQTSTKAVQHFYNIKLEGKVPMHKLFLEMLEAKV

ROS = assay type: cell-based
ERRγ promoter = assay type: cell-based
[10] = test system: c-Jun occupancy on the AP1 regulatory element site of the ERRγ promoter; assay type: cell-based

CC(C)N1CCN(c2ccc(/C(=C(/CCCO)c3ccccc3)c3ccc(O)cc3)cc2)CC1 [DN200434]
IC50 (PSaV Cowden strain): 6.24 ± 1.07 µM | viral genome replication, progeny production, and protein synthesis of IAV [1]: dose-dependent suppression | reduction in viral genome copy numbers (BCoV KWD strain): more than 2.0 log 10 steps | reduction in viral titers (BCoV KWD strain): more than 2.0 log 10 steps | reduction in viral genome copy numbers (PEDV QIAP1401 strain): more than 2.0 log 10 steps | reduction in viral titers (PEDV QIAP1401 strain): more than 2.0 log 10 steps | reduction in gross lung lesions (SARS-CoV-2 KCDC03 strain; 40 mg kg^−1 d^−1 i.p., twice a day for four and a half days, vs virus-challenged, vehicle-treated control): 92% | reduction of gross lung lesions, individual therapy (SARS-CoV-2 KCDC03 strain; DN200434 40 mg kg^−1 d^−1 alone (combination study)): 50% | IFN-α and IFN-β levels in BALF (SARS-CoV-2 KCDC03 strain; hamsters, i.p., vs vehicle-treated controls): no effect | activity of the SREBP1c gene promoter [2]: markedly suppressed | SREBP1c expression activated by individual virus infections [3]: reduced | basal level of SREBP1a mRNA ([3]; 20 μM): not affected | lipogenic gene activation (FASN, DGAT1, SCD1 mRNA) ([3]; 20 μM): effectively attenuated | lipid accumulation (intracellular TAG) [4]: effectively attenuated | SARS-CoV-2-induced perinuclear DMV clusters containing viral double-stranded RNA ([5]; TEM and confocal microscopy): significant reduction | number of progeny viral particles ([5]; TEM, vs vehicle-treated virus-infected cells): notable reduction | palmitoylation of SARS-CoV-2 S protein (SARS-CoV-2 S protein): significantly inhibited | palmitoylation of IAV HA proteins (IAV HA protein): significantly inhibited | energy production through 3-oxidation in the mitochondria from the FFA substrate [6]: inhibited | IFN-α and IFN-β levels ([7]; SARS-CoV-2-infected Vero cells): remained unchanged | TNF-α, IL-6, and MCP-1 levels ([7]; SARS-CoV-2-infected Vero cells): significantly reduced | levels of PGE2 and LTB4 ([7]; SARS-CoV-2-infected cells): significantly reduced | levels of PGE2 and LTB4 (IAV-infected A549 cells): significantly reduced | proinflammatory cytokines IFN-α, IFN-β, TNF-α, IL-6, and MCP-1 (IAV-infected A549 cells): significant suppression | synthesis of representative fatty acids induced by infection (free fatty acids (FFA)): significantly interrupted | level of selected FFA (free fatty acids (FFA); 20 μM): either restored the level of selected FFA to that of mock control cells or decreased it below mock control levels | detection in the lungs via the bloodstream [8]: detected in sufficient quantities in the lungs | gross or histopathological changes in vital organs (liver, lung, kidney, heart, spleen) [9]: did not result in gross or histopathological changes | signs of toxicity ([9]; i.p. 20 mg kg^−1 d^−1, 14 days): did not induce any signs of toxicity | signs of toxicity (Syrian hamsters, i.p. 40 mg kg^−1 d^−1, 14 days): did not induce any signs of toxicity | gross or histopathological changes in vital organs (liver, lung, kidney, heart, spleen) (hamsters): did not result in gross or histopathological changes | functional IC50 relative to GSK5182 (ERRγ): 12 fold

CC(=O)N[C@@H](CS)C(=O)O [NAC, N-acetylcysteine]
virus-induced ROS generation (ROS): significantly suppressed | virus-induced activation of ERRγ promoter and ERRγ expression (ERRγ promoter): attenuated | virus-increased occupancy of c-Jun on the AP1 regulatory element site of the ERRγ promoter [10]: markedly blocked

CCC(CC)COC(=O)[C@H](C)N[P@](=O)(OC[C@H]1O[C@@](C#N)(c2ccc3c(N)ncnn23)[C@H](O)[C@@H]1O)Oc1ccccc1 [remdesivir, reference compound]
reduction of gross lung lesions, individual therapy (SARS-CoV-2 KCDC03 strain; remdesivir 2.5 mg kg^−1 d^−1 alone): 20%
